Source: BindingDB's records for PubMed 2795469 (Ciba-Geigy, 1989)

Target: Adenosine receptor A2a (Rattus norvegicus, UniProt P30543)
Sequence (P30543 whole entry): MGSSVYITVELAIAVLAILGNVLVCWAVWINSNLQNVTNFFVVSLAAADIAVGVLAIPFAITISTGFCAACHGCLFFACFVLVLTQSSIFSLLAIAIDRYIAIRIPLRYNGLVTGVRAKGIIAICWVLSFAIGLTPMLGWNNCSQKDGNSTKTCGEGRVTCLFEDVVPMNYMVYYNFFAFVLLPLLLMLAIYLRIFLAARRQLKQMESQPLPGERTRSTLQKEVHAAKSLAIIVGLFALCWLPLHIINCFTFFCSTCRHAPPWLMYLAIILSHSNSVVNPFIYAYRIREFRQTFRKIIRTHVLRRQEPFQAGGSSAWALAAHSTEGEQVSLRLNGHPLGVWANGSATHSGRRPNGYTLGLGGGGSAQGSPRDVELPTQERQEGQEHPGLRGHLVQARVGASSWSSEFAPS

Ki: 115 nM
SMILES: Nc1nc(Nc2ccccc2)nc2c1ncn2[C@@H]1O[C@H](CO)[C@H](O)C1O (stereo partly specified) [(CV 1808) 2-(6-Amino-2-phenylamino-purin-9-yl)-5-hydroxymethyl-tetrahydro-furan-3,4-diol]
